Source: US20050170360A1, “Variant neuronal nicotinic alpha-7 receptor and methods of use” (priority 2004, published 2005)
Read-outs that look alike come from different tables or passages of the source.

What was measured:
L247T mutant = L247T mutant (UniProt P22770, L270T, species not given); type: cell-based; details: for type of activity (agonist / antagonist): L247T
wild-type α7 nAChR = wild-type α7 nAChR (Rattus norvegicus, UniProt Q05941); test: Two-electrode voltage-clamp recording of Xenopus oocytes expressing wild-type α7
Protocol: Mature (>9 cm) female Xenopus laevis African toads (Nasco, Ft. Atkinson, Wis.) were used as a source of oocytes. Prior to surgery, frogs were anesthetized by placing the animal in a 2 g/L solution of MS222 (3-aminobenzoic acid ethyl ester). Oocytes were removed from an incision made in the abdomen.
(§3) Subsequently, stage 5 oocytes were isolated and injected with 50 nl each of a mixture of the appropriate subunit cRNAs following harvest. Recordings were made 3 to 21 days after injection depending on the cRNAs being tested.
(§4) Voltage-clamp recording of whole oocate responses. Data were obtained by means of two-electrode voltage-clamp recording. […] This extracellular solution was used for all experiments unless otherwise noted.
(§5) Bath solution and drug applications are applied through a linear perfusion system to oocytes placed in Lucite chamber with a total volume of 0.5 ml. Drug delivery involves pre-loading a 1.8 ml length of tubing at the terminus of the perfusion system, while a Mariotte flask filled with Ringer's solution is used to maintain constant perfusion. Applications of drug solutions are then synchronized with acquisition. […] In addition, some oocyte recordings were made using a beta version of the OpusXpress 6000A (Axon Instruments, Union City, Calif.). OpusXpress is an integrated system that provides automated impalement and voltage clamp, which in our case permitted the study of four oocytes in parallel. Cells were automatically perfused with bath solution, and agonist solutions were delivered from a 96-well compound plate. In experiments using the OpusXpress system, the voltage and current electrodes were filled with 3 M KCl. In all experiments, bath flow rates were set at 6 ml/minute.
(§6) Experimental protocols and analysis of data from Xenopus oocytes. Current responses to drug application were studied under two-electrode voltage clamp at a holding potential of −50 mV unless otherwise noted (−60 mV for the OpusXpress system). Holding currents immediately prior to agonist application were subtracted from measurements of the peak response to agonist. All drug applications were separated by a wash period of 5 minutes unless otherwise noted. […] Means and standard errors (SEM) were calculated from the normalized responses of at least four oocytes for each experimental concentration.
(§7) For concentration-response relations, data were plotted using Kaleidagraph 3.0.2 (Abelbeck Software; Reading, Pa.), and curves were generated using the Hill equation: [formula] where Imax denotes the maximal response for a particular agonist/subunit combination, and n represents the Hill coefficient. Imax, n, and the EC50 were all unconstrained for the fitting procedures.
(§8) Calculations of peak amplitudes and net charge were made using pClamp either during acquisition or during subsequent Clampfit analysis.

rat α7 TM2 T6'S = rat α7 TM2 T6'S (Rattus norvegicus, UniProt Q05941, T267S); test: Two-electrode voltage-clamp recording of Xenopus oocytes expressing α7 TM2 T6'S mutant
Protocol: Expression in Xenopus oocvtes. Mature (>9 cm) female Xenopus laevis African toads (Nasco, Ft. Atkinson, Wis.) were used as a source of oocytes. Prior to surgery, frogs were anesthetized by placing the animal in a 2 g/L solution of MS222 (3-aminobenzoic acid ethyl ester). Oocytes were removed from an incision made in the abdomen.
as §3, §4, §5, §6, §7, §8

rat α7 TM2 T6'F = biological target: T1, rat α7 TM2 T6'F (Rattus norvegicus, UniProt Q05941, T267F); test: Two-electrode voltage-clamp recording of Xenopus oocytes expressing α7 TM2 T6'F mutant; type: cell-based
T1 construct: expressed in transfected cells; host or cells: Xenopus laevis oocytes injected with cRNA
Source text: Site-directed mutagenesis.
(§1) Expression in Xenopus oocvtes.
(§2) Voltage-clamp recording of whole oocate responses.

muscle-type receptors = biological target: T2, muscle-type receptors (Mus musculus, UniProt P02716+P04756); test: Two-electrode voltage-clamp recording of Xenopus oocytes expressing muscle-type receptors; type: cell-based
T2 construct: expressed in transfected cells; host or cells: Xenopus laevis oocytes injected with cRNA
Source text: as §1, §2

Compound | type of activity (agonist / antagonist) (L247T mutant) | type of activity (agonist / antagonist / potentiation) (wild-type α7 nAChR; Wild type) | type of activity (agonist / antagonist / potentiation) (rat α7 TM2 T6'S; T6'S) | % agonist (wild-type α7 nAChR; Wild type) | % agonist (rat α7 TM2 T6'S; T6'S) | EC50 (wild-type α7 nAChR) [µM] | EC50 (rat α7 TM2 T6'S) [µM] | further results
NCCc1c[nH]c2ccc(O)cc12 [5-HT] | agonist | antagonist | antagonist |  |  |  |  | 
Oc1ccc2[nH]ccc2c1 [5HI, 5-hydroxy-indole] |  | potentiates | does not potentiate |  |  |  |  | 
O=C1NCC2(CN3CCC2CC3)O1 (centres unmarked) [AR-R17779] |  |  |  | 78% agonist 10 μM | 90% agonist 30 μM |  |  | 
C[N+](C)(C)CCO [Choline] |  |  |  | 100% agonist 300 μM | 95% agonist 2 mM | 300 | 2000 | EC50 (L247T mutant): 12 µM; EC50 (rat α7 TM2 T6'S; EC50, T6'S column): ~360 µM
O=c1cccc2n1C[C@@H]1CNC[C@H]2C1 [Cytisine] |  |  |  |  |  | 13 | 43 | % agonist (wild-type α7 nAChR): 73% agonist 13 μM; % agonist (rat α7 TM2 T6'S): 80% agonist 43 μM
COc1ccc(/C=C2\CCCN=C2c2cccnc2)c(OC)c1 [GTS-21 (DMXB)] | full |  |  | 32% | 12% | 5 | 3 | 
C[N+](C)(C)CCCCCC[N+](C)(C)C [Hexamethonium] | agonist | antagonist | antagonist |  |  |  |  | 
CNCC/C=C/c1cccnc1 [TC-2403] |  |  |  | 16% | 18% agonist | 240 | 400 | 
CN1[C@@H]2CC[C@H]1C[C@@H](OC(=O)c1c[nH]c3ccccc13)C2 [Tropisetron] |  |  |  | 38% | 30% |  |  | 
COc1cc2c3cc1Oc1cc(ccc1O)C[C@@H]1c4c(cc(OC)c(O)c4Oc4ccc(cc4)C[C@@H]3N(C)CC2)CC[N+]1(C)C [Tubocurarine] | agonist | antagonist | antagonist |  |  |  |  | 
[Zn+2] [Zinc] | agonist | antagonist | antagonist |  |  |  |  | 
C[N+](C)(C)CCOC(=O)CCC(=O)OCC[N+](C)(C)C [succinylcholine] |  |  |  |  |  |  |  | activation of receptor (rat α7 TM2 T6'F; 100 μM succinylcholine): dramatic increase in sensitivity; concentration-response function (rat α7 TM2 T6'F; full range of concentrations): relatively potent, full agonist; type of activity (muscle-type receptors): Selective Agonist; activation of receptor (wild-type α7 nAChR): relatively ineffective; concentration-response function (wild-type α7 nAChR; full range of concentrations): respond poorly; activation of receptor (rat α7 TM2 T6'S): virtually no response; concentration-response function (rat α7 TM2 T6'S; full range of concentrations): respond poorly
